Assay results published in paper PMC9088311, “Cyclic Thiosulfonates for Thiol-Mediated Uptake: Cascade Exchangers, Transporters, Inhibitors” (JACS Au, 2022).
In brackets after ≈: the same amount, converted by molar mass. Like-named read-outs stand apart in the source and are kept apart here.

Columns and labels:
HK cells, transporter 31 [1] = test: HCHT imaging: inhibition of cytosolic delivery of ETP transporter 31; type: cell-based, Human; details: inhibitor 1 h; for IC15: read-out: MIC (concentration needed to reach 15% inhibition), transporter 31 10 μM
Protocol: (§1) Uptake inhibition was measured by the automated HCHT imaging used already to elaborate on cytosolic delivery. For inhibitor screening, HK cells in multiwell plates were incubated with increasing concentrations of inhibitors, followed by fluorescent transporters 28, 31, and 32 at a constant concentration. […] If inhibitors are removed before the addition of transporters 28, 31, and 32, the method is referred to as “pre-incubation”. This is of interest to minimize exchange between the transporter and the inhibitor but is often problematic because dynamic covalent exchange between the inhibitor and cellular target can also be reversed and thus lost. The complementary “co-incubation” operates without inhibitor removal before the addition of transporters 28, 31, and 32.
(§2) 536/40 nm emission filter, and red with 531/40 nm excitation filter and 593/40 nm emission […]
(§3) 4.3. HCHT Inhibitor Screening
(§4) Pre-Incubation Method. As in ref. S1. HeLa Kyoto cells were seeded at 8 ×10^4 cells/mL in FluoroBrite DMEM + 10% FBS on μ-Plate 96-well Black ibiTreat sterile and incubated at 37 °C with 5% CO 2 for 24 h. Then, the medium was removed and cells were washed with PBS ([…]), fresh FluoroBrite DMEM medium (4 × 150 μL/well) was added into the cells using a plate washer (Biotek EL406®), keeping a final volume of 135 μL/well. Different concentrations of the inhibitors were prepared by serial dilution with 10% final concentration DMSO (10× in PBS). The solution of compounds 4 and 33 was prepared final DMSO concentration of 10% in each dilution (10× in PBS). These inhibitor solutions (10× final concentration), transporter 28 (10× in DMEM), transporters 31 and 32 (10× in PBS) a solution of HOE (100 μg/mL) and PI (10 μg/mL) in PBS were prepared freshly in a 96-well V-bottom plate before adding to the cells. The inhibitor solutions from the V-bottom plate were added to the cells (15 μL/well) in a final volume of 150 μL/well using an electronic multichannel pipette and cells were incubated for 1 h at 37 °C with 5% CO 2. After this incubation, cells were washed again with PBS and DMEM using the plate washer (in the way mentioned above), and transporter 28 , 31 or 32 from the V-bottom plate was added (15 μL/well) to the cells in a final volume of 150 μL/well. A final concentration of each transporter 28 , 31 and 32 was 5 μM, 10 μM and 0.5 μM, respectively, except for the control wells, where only PBS was added (15 μL/well). Cells treated with transporter 28 or 31 were incubated for 30 min, and cells treated with 32 were incubated for 2 h at 37 °C with 5% CO 2. After that, the cells were washed with PBS and DMEM using the plate washer, and the solution of Hoechst 33342 and PI from the V-bottom plate was added (15 μL/well) to the cells in a final volume of 150 μL/well. After 15 min of incubation at 37 °C with 5% CO 2, the cells were washed and kept in clean FluoroBrite
(§5) DMEM. For live cell imaging, samples were kept at 37 °C with 5% CO 2 during the microscope imaging. The distribution of fluorescence stained cells was analyzed without fixing using an […]

[2] = test system: A549 human lung alveolar basal epithelium cells overexpressing ACE2 and TMPRSS2; details: inhibitor 5 μM
HeLa Kyoto cells [3] = test: Relative viability (HOE/PI) in HCHT screening
Protocol: One advantage of HCHT imaging of cellular uptake compared to flow cytometry[38],[42],[43] is that it simultaneously gives information on toxicity and intracellular localization. […] Information on the intracellular localization of reporters can be quantified through segmentation of cellular compartments stained with specific markers.[52]
as §1
Relative cell viability ( RV) for each condition in the presence of inhibitors was calculated […]
of the relative cell viability ( RVrel) to the concentration of inhibitors ( cinhibitor ) was plotted and fitted with Equation (S19) to retrieve the concentration causing 50% cell growth inhibition (RV50) value and the Hill coefficient ( n).

HeLa Kyoto (HK) cells = test: Cellular uptake of fluorescent transporters (HCHT imaging, SDCM); type: cell-based, Human; details: 10, 20, 50 μM transporter
Protocol: Cellular uptake was measured by automated high-content high-throughput (HCHT) imaging.[51] This method provides access to biologically meaningful and statistically relevant data from thousands of cells within a very short time. For the uptake monitoring, HeLa Kyoto (HK) cells in multiwell plates were incubated with the fluorescent transporters 28–30 for 1 h, washed, and imaged by spinning disk confocal microscopy (SDCM) to quantify the fluorescent transporters that have entered the cells. […] The better activity of CTOs 28 compared to 29 was consistent with the concept of hydrophobic directing groups, expected to guide CTOs into an aprotic environment within membranes or proteins to activate the sulfinate exchanger and thus turn on dynamic covalent exchange cascades with cellular partners (Figure 2D). The passive diffusion of transporter 28 across the membrane is conceivable but unlikely because this process can be inhibited by other CAXs (see the next section).
4. High-Content High-Throughput (HCHT) Inhibitor Screening […]
The distribution of fluorescence stained cells was analyzed without fixing using an IXM-C automated microscope. 4 images per well were recorded using 10× objective lens, and fluorescent images were acquired with three channels, blue with 377/50 nm excitation filter and 477/60 nm emission filter, green for FITC transporter with 475/34 nm excitation filter and […]

trypsin = test: Trypsin inhibition (preliminary, not shown); type: biochemical; details: 50 μM; preliminary results
cathepsin B = cathepsin B (Homo sapiens, UniProt P07858); test: Cathepsin B inhibition (preliminary, not shown); type: biochemical; details: 50 μM; preliminary results
in vitro = details: human
HK cells, transporter 28 = test: HCHT imaging: inhibition of cytosolic delivery of CTO transporter 28; type: cell-based, Human; design: key to inhibition of CTO 28 uptake (heatmap): –: −: inactive; ++: qualitative inhibition of SC2 uptake; details: for IC50 / IC15: Homo sapiens; for IC50: read-out: IC50 (concentration needed to reach 50% inhibition), transporter 28 5 μM; for IC50 / IC15 / MIC (concentration needed to reach 15% inhibition): inhibitor 1 h
Protocol: as §1, §2, §3, §4, §5

cathepsin L = cathepsin L (Homo sapiens, UniProt P07711); test: Cathepsin L inhibition (preliminary, not shown); type: biochemical; details: 50 μM; preliminary results
HeLa Kyoto cells [4] = details: with transporter 31; pre-incubation (P); cited from earlier work
HK cells, transporter 32 = test system: HK cells, transporter 32; design: method as in PMID 34173696; details: transporter 32 0.5 or 1 μM, pre-incubation (P), cited from earlier work; for IC50: read-out: IC50 (concentration needed to reach 50% inhibition)
HK cells, transporter 31 [5] = details: transporter 31 10 μM, pre-incubation (P), cited from earlier work; for IC50: read-out: IC50 (concentration needed to reach 50% inhibition)
[6] = with transporter 31, co-incubation (C)
[7] = Homo sapiens, 1 h, read-out: IC50 (concentration needed to reach 50% inhibition), transporter 31 10 μM, co-incubation (C)
[8] = Homo sapiens, 1 h, co-incubation (C)
[9] = 1 h, read-out: MIC (concentration needed to reach 15% inhibition), transporter 28 5 μM, co-incubation (C)
[10] = transporter 28 5 μM, co-incubation (C)
[11] = with transporter 28, co-incubation (C)
[12] = transporter 28 5 μM, pre-incubation (P)
[13] = with transporter 28, pre-incubation (P)

Sequence of cathepsin L (P07711 114-333, species assumed): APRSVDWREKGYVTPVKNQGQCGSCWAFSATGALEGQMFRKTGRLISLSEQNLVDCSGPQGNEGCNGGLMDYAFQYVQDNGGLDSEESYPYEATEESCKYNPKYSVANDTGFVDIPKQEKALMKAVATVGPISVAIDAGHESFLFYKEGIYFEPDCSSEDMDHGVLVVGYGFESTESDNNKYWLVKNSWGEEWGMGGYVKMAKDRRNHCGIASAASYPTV

## CC(C)(C)OC(=O)NCCNC(=O)O[C@H]1CSS(=O)(=O)C[C@H]1O[Si](C)(C)C(C)(C)C (racemic) [Compound 50]
HK cells, transporter 31 [1]; read-out: IC50 (concentration needed to reach 50% inhibition), transporter 31 10 μM, co-incubation (C)
  IC50: 20 ± 3 µM
HK cells, transporter 31 [1]; transporter 31 10 μM, co-incubation (C)
  MIC (concentration needed to reach 15% inhibition): 5.6 µM
[2]
  RV, relative cell viability: 110 ± 10%
HeLa Kyoto cells [3]; [6]
  RV50 (concentration needed to lower relative viability by 50%): ≈ 20 μM

## CC(C)(C)[Si](C)(C)O[C@H]1CS(=O)(=O)SC[C@@H]1OCC(=O)NCCNC(=S)Nc1ccc(-c2c3ccc(=O)cc-3oc3cc(O)ccc23)c(C(=O)O)c1 [Compound 28]
HeLa Kyoto (HK) cells
  cellular uptake, fluorescence intensity of HK cells (in words): more active than the AspA 30 standard

## O=C(CO[C@H]1CSS(=O)(=O)C[C@@H]1O)NCCNC(=S)Nc1ccc(-c2c3ccc(=O)cc-3oc3cc(O)ccc23)c(C(=O)O)c1 [Compound 29]
HeLa Kyoto (HK) cells
  cellular uptake, fluorescence intensity of HK cells (in words): more active than the AspA 30 standard

## CC(C)(C)OC(=O)NCCNC(=O)O[C@H]1CSS(=O)(=O)C[C@H]1O [Compound 34]
trypsin
  inhibition of trypsin (in words): inhibit only cathepsin B
Cathepsin B
  inhibition of cathepsin B (in words): inhibit only cathepsin B
HK cells, transporter 31 [1]; [7]
  IC50: > 100 µM
HK cells, transporter 31 [1]; [8]
  IC15: 16 µM
HK cells, transporter 31 [1]; Homo sapiens, 1 h, pre-incubation (P)
  IC15: 3 µM
HK cells, transporter 31 [1]; Homo sapiens, read-out: IC50 (concentration needed to reach 50% inhibition), transporter 31 10 μM, pre-incubation (P)
  IC50: > 100 µM
HK cells, transporter 31 [1]; transporter 31 10 μM, pre-incubation (P)
  MIC (concentration needed to reach 15% inhibition): 3 µM (≈ 1.11 µg/mL)
In vitro
  viability at 7 h, 50 µM: 76%
HK cells, transporter 28; 1 h, co-incubation (C)
  IC50: 26 µM
HK cells, transporter 28; [9]
  IC15: 1.2 µM
HK cells, transporter 28; [10]
  MIC (concentration needed to reach 15% inhibition): 1 µM
HeLa Kyoto cells [3]; [11]
  RV50 (concentration needed to lower relative viability by 50%): >50 µM
HeLa Kyoto cells [3]; [6]
  RV50 (concentration needed to lower relative viability by 50%): >100 µM
HeLa Kyoto cells [3]; with transporter 31, pre-incubation (P)
  RV50 (concentration needed to lower relative viability by 50%): >100 µM
Cathepsin L
  inhibition of cathepsin L (in words): inhibit only cathepsin B

## O=C(N[C@H]1CCS(=O)(=O)SC1)N[C@H]1CCS(=O)(=O)SC1 [Compound 35]
trypsin
  inhibition of trypsin (in words): inhibit only cathepsin B
Cathepsin B
  inhibition of cathepsin B (in words): inhibit only cathepsin B
HK cells, transporter 31 [1]; [7]
  IC50: 51 µM
HK cells, transporter 31 [1]; [8]
  IC15: 9 µM
In vitro
  viability at 7 h, 50 µM: 96%
HK cells, transporter 28; 1 h, co-incubation (C)
  IC50: 25 µM
HK cells, transporter 28; [9]
  IC15: 3.5 µM
HK cells, transporter 28; [10]
  MIC (concentration needed to reach 15% inhibition): 4 µM
HeLa Kyoto cells [3]; [11]
  RV50 (concentration needed to lower relative viability by 50%): >50 µM
HeLa Kyoto cells [3]; [6]
  RV50 (concentration needed to lower relative viability by 50%): >100 µM
Cathepsin L
  inhibition of cathepsin L (in words): inhibit only cathepsin B

## CCN1C(=O)C2SSSSC1C(=O)N2CC(=O)O (centres unmarked) [Compound 47, reference compound]
In vitro
  viability at 7 h, 50 µM: 70%
HeLa Kyoto cells [4]
  RV50 (concentration needed to lower relative viability by 50%): 35 µM
HK cells, transporter 28; pre-incubation (P)
  IC50: > 10 µM
HK cells, transporter 28; read-out: MIC (concentration needed to reach 15% inhibition), transporter 28 5 μM, pre-incubation (P)
  IC15: > 10 µM
HK cells, transporter 28; pre-incubation conditions
  inhibition of CTO 28 uptake (heatmap): –
HK cells, transporter 28; [12]
  MIC (concentration needed to reach 15% inhibition): >10 µM
HeLa Kyoto cells [3]; [13]
  RV50 (concentration needed to lower relative viability by 50%): >10 µM
HK cells, transporter 32
  IC50: 50 µM
  MIC (concentration needed to reach 15% inhibition): 2 µM (≈ 0.653 µg/mL)
HK cells, transporter 31 [5]
  IC50: 1.3 µM

## CC(=O)/C=C1/C(=O)N(C)c2ccccc21 [Compound 48, super-cinnamaldehyde, reference compound]
In vitro
  viability at 7 h, 5 µM: 94%
HeLa Kyoto cells [4]
  RV50 (concentration needed to lower relative viability by 50%): >20 µM
HK cells, transporter 31 [5]
  IC50: 4 µM
  MIC (concentration needed to reach 15% inhibition): <1 µM

## CC#CI1OC(=O)c2ccccc21 [Compound 49, reference compound]
In vitro
  viability at 7 h, 5 µM: 92%
HeLa Kyoto cells [4]
  RV50 (concentration needed to lower relative viability by 50%): 60 µM
HK cells, transporter 28; 1 h, read-out: MIC (concentration needed to reach 15% inhibition), transporter 28 5 μM, pre-incubation (P)
  IC15: 8.7 µM
HK cells, transporter 28; pre-incubation (P)
  IC50: 53 µM
HK cells, transporter 28; [12]
  MIC (concentration needed to reach 15% inhibition): 9 µM (≈ 2.57 µg/mL)
HeLa Kyoto cells [3]; [13]
  RV50 (concentration needed to lower relative viability by 50%): >50 µM
HK cells, transporter 32
  IC50: 10 µM
  MIC (concentration needed to reach 15% inhibition): 0.3 µM (≈ 0.0858 µg/mL)
HK cells, transporter 31 [5]
  IC50: 40 µM
  MIC (concentration needed to reach 15% inhibition): 4 µM (≈ 1.14 µg/mL)
